Series [1] relates to U-937. The experiment in a line: Cytotoxicity against human U937 cells after 24 hrs by MTT assay. Particulars: u-937, 24 h. On the technique in general: Tetrazolium dyes change colour on reduction, which living cells bring about.
Series [2] concerns the target T1, Human immunodeficiency virus type 1 integrase (Human immunodeficiency virus 1, UniProt Q7ZJM1). Put plainly: Inhibition of recombinant HIV1 integrase strand transfer activity by gel-based assay in presence of magnesium.
The target in series [3] is T1, Human immunodeficiency virus type 1 integrase. Put plainly: Inhibition of recombinant HIV1 integrase 3'-end processing activity by gel-based assay in presence of magnesium.
Series [4] shares this target.
Description: Inhibition of recombinant HIV1 integrase strand transfer activity by high throughput electrochemiluminescent assay in presence of magnesium
Series [5] has as its target Human immunodeficiency virus type 1 integrase (Human immunodeficiency virus 1) (UniProt Q7ZJM1). The experiment in a line: Inhibition of HIV1 recombinant integrase in presence of manganese.
In series [6] the test system is Human immunodeficiency virus 1. The experiment in a line: Antiviral activity against HIV1-infected in human H9/HTLV 3B cells after 4 days. As to conditions: Human immunodeficiency virus 1, 96 h. Type of series: functional, organism-based.

Activity calls are given as the source filed them. No cut-off for these calls is given here.

Chain of Human immunodeficiency virus type 1 integrase (Human immunodeficiency virus 1) (Q7ZJM1 as listed by the source): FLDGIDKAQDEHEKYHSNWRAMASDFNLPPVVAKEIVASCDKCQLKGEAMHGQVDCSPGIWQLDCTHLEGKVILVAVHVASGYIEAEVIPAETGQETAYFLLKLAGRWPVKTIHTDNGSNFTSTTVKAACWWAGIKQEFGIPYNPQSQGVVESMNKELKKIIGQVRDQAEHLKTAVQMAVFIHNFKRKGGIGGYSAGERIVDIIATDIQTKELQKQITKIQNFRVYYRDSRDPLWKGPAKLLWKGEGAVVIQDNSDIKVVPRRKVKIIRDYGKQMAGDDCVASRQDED
T1 sequence (Q7ZJM1 whole entry): as the sequence (Q7ZJM1 as listed by the source) above

In general, CC50 refers to the concentration giving 50% cytotoxicity. A high value points to lower toxicity to the cells. Molecule `O=C(O)/C(O)=C/C(=O)c1ccc2c(c1)c(=O)c(C(=O)/C=C(\O)C(=O)O)cn2Cc1ccc(F)cc1` gave a CC50 in series [1] of more than 200 µM.

Usually IC50 stands for the concentration that gives 50% inhibition. Regarding `CCOC(=O)/C(O)=C/C(=O)c1c[nH]c2ccc(Cl)cc2c1=O`, the IC50 is 2.1 µM in series [2], 120 µM in series [3] and 3.3 µM in series [4].

Take `CCOC(=O)/C(O)=C/C(=O)c1cn(Cc2ccc(F)cc2)c2cc(Cl)c(Cl)cc2c1=O`: in series [5], the result was Active. In addition, half-maximal cytotoxicity in series [1] (CC50) was put at 72 µM. Besides, the values for the concentration for half-maximal inhibition (IC50) in series [2], in series [3] and in series [4] were 1.8 µM, 135 µM and 3.9 µM, respectively.

Turning to `O=C(O)/C(O)=C/C(=O)c1c[nH]c2ccc(Cl)cc2c1=O`, the IC50 in series [2] was 56 µM; in series [3] it was 166 µM; in series [4] it was more than 111 µM.

With `O=C(O)/C(O)=C/C(=O)c1cn(Cc2ccc(F)cc2)c2c(F)cccc2c1=O`, the outcome in series [5] was Active. Also, in series [1], the half-maximal cytotoxic concentration (CC50) is more than 200 µM. For the same molecule, the results for the IC50 in series [2], in series [3] and in series [4] were 0.16 µM, 16 µM and 0.018 µM, respectively.

Take `CCOC(=O)/C(O)=C/C(=O)c1cn(Cc2ccc(F)cc2)c2c(F)cccc2c1=O`: the outcome in series [5] was Active. In series [1], this molecule showed a cytotoxic concentration (CC50) of more than 200 µM. The concentration for half-maximal inhibition (IC50) in series [2] was 5.2 µM; in series [3], more than 333 µM; in series [4], 26 µM.

With `O=C(O)/C(O)=C/C(=O)c1cn(Cc2ccc(F)cc2)c2c(Cl)cccc2c1=O`, the outcome in series [5] was Active. Besides, the 50% cytotoxic concentration (CC50) in series [1] was more than 200 µM. In addition, the figures for the concentration for half-maximal inhibition (IC50) in series [2] and in series [3] were 0.51 µM and 44 µM, respectively.

For `CCOC(=O)/C(O)=C/C(=O)c1cn(Cc2ccc(F)cc2)c2cc(N3CCCC3)ccc2c1=O`, the outcome in series [5] was Active. This molecule gave a CC50 in series [1] of more than 200 µM. Also, the IC50 stood at 2.7 µM in series [2], 110 µM in series [3] and 2.3 µM in series [4].

As to `O=C(O)/C(O)=C/C(=O)c1cn(Cc2ccc(F)cc2)c2ccccc2c1=O`, in series [5], the result was Active. Besides, in series [1], the CC50 is more than 200 µM. Also, the half-maximal inhibitory concentration (IC50) was 0.06 µM in series [2], 14 µM in series [3] and 0.04 µM in series [4].

As for `O=C(O)/C(O)=C/C(=O)c1cn(Cc2ccc(F)cc2)c2cc(N3CCCC3)ccc2c1=O`, the outcome in series [5] was Active. The CC50 in series [1] was more than 200 µM. Moreover, the values for the IC50 in series [2], in series [3] and in series [4] were 0.18 µM, 14 µM and 0.028 µM, respectively.

With `CCOC(=O)/C(O)=C/C(=O)c1cn(Cc2ccc(F)cc2)c2c(Cl)cccc2c1=O`, the result in series [5] was Active. Besides, in series [1], the 50% cytotoxic concentration (CC50) was more than 200 µM. In addition, the IC50 in series [2] is 5.2 µM; in series [3] it was more than 333 µM; in series [4] it was 32 µM.

Consider `O=C(O)/C(O)=C/C(=O)c1cn(Cc2ccc(F)cc2)c2ccc(F)cc2c1=O`, for which the result in series [5] was Active. For the same molecule, the CC50 in series [1] was more than 200 µM. In addition, the IC50 in series [3] amounted to 2.3 µM.

On to `O=C(O)/C(O)=C/C(=O)c1c[nH]c2cc(Cl)ccc2c1=O`, for which the results for the half-maximal inhibitory concentration (IC50) in series [2], in series [3] and in series [4] were 17 µM, more than 333 µM and 37 µM, respectively.

The EC50 is the concentration at which the effect is half-maximal. With `O=C(O)C(=O)CC(=O)c1cccn1Cc1ccc(F)cc1`, the 50% effective concentration (EC50) in series [6] was 1 µM.

Take `CCOC(=O)/C(O)=C/C(=O)c1cn(Cc2ccc(F)cc2)c2ccc(Cl)cc2c1=O`: in series [5], the result was Active. In addition, the results for the IC50 in series [2], in series [3] and in series [4] were 3 µM, more than 333 µM and 21 µM, respectively.

For the molecule `O=C(O)/C(O)=C/C(=O)c1cn(Cc2ccc(F)cc2)c2ccc(Cl)cc2c1=O`, the outcome in series [5] was Active. Moreover, in series [1], the CC50 is more than 200 µM. For the same molecule, the IC50 in series [2] was 0.4 µM; in series [3] it was 6.4 µM; in series [4] it was 0.028 µM.

In the case of `CCOC(=O)/C(O)=C/C(=O)c1cn(Cc2ccc(F)cc2)c2cc(Cl)ccc2c1=O`, the result in series [5] was Active. Further, the IC50 in series [2] is 3.6 µM; in series [3] it was more than 333 µM; in series [4], 14 µM.

Consider `O=C(O)/C(O)=C/C(=O)c1cn(Cc2ccc(F)cc2)c2cc(F)ccc2c1=O`, for which the result in series [5] was Active. Also, the cytotoxic concentration (CC50) in series [1] was more than 200 µM. In addition, the half-inhibitory concentration (IC50) came to 0.05 µM in series [2], 4.4 µM in series [3] and 0.02 µM in series [4].

In the case of `O=C(O)/C(O)=C/C(=O)c1cn(Cc2ccc(F)cc2)c2cc(Cl)ccc2c1=O`, the result in series [5] was Active. This molecule returned a half-maximal cytotoxic concentration (CC50) in series [1] of more than 200 µM. Besides, the IC50 in series [2] turned out to be 0.11 µM; in series [3] it was 4 µM; in series [4], 0.019 µM.

`O=C(O)/C(O)=C/C(=O)c1cn(Cc2ccc(F)cc2)c2cc(Cl)c(Cl)cc2c1=O`: the result in series [5] was Active. Moreover, in series [1], the midpoint of cytotoxicity, the CC50, lay at 156 µM. The figures for the IC50 in series [2], in series [3] and in series [4] were 0.075 µM, 11 µM and 0.033 µM, respectively.

On to `CCOC(=O)/C(O)=C/C(=O)c1cn(Cc2ccc(F)cc2)c2cc(F)ccc2c1=O`, for which the outcome in series [5] was Active. In series [1], the cytotoxic concentration (CC50) is more than 200 µM. Moreover, the figures for the IC50 in series [2], in series [3] and in series [4] were 1.2 µM, more than 333 µM and 1.3 µM, respectively.

Turning to `CCOC(=O)/C(O)=C/C(=O)c1cn(Cc2ccc(F)cc2)c2ccccc2c1=O`, the result in series [5] was Active. The molecule further registered a CC50 in series [1] of 99 µM. For the same molecule, the results for the 50% inhibitory concentration (IC50) in series [2], in series [3] and in series [4] were 0.44 µM, 135 µM and 0.67 µM, respectively.

For the molecule `CCOC(=O)/C(O)=C/C(=O)c1cn(Cc2ccc(F)cc2)c2ccc(F)cc2c1=O`, the outcome in series [5] was Active. Also, the half-maximal cytotoxic concentration (CC50) in series [1] is more than 200 µM. For the same molecule, the figures for the IC50 in series [2], in series [3] and in series [4] were 0.23 µM, more than 333 µM and 0.58 µM, respectively.

As to `CCOC(=O)/C(O)=C/C(=O)c1c[nH]c2cc(Cl)ccc2c1=O`, the values for the IC50 in series [2], in series [3] and in series [4] were 224 µM, more than 333 µM and more than 111 µM, respectively.

The values above are taken from ChEMBL document CHEMBL1155934, “Novel quinolinonyl diketo acid derivatives as HIV-1 integrase inhibitors: design, synthesis, and biological activities” (J Med Chem, 2008).
